US20160186196A1 (priority 2009, published 2016)

Tests used:
Type in all cases: cell-based, Chlamydomonas reinhardtii
[1] = tested on: C. reinhardtii UTEX 2244 and transformants; test: Rose Bengal photooxidative stress kill curves in liquid culture; settings: 2 μM Rose Bengal, within the first five hours of exposure
Description: Exposure of C. reinhardtii to Rose Bengal was performed as follows. In order to induce apoptosis in C. reinhardtii by the mechanism of photooxidative stress, algal cells were grown on solid medium containing various concentrations of the photosensitizing dye Rose Bengal as described in Fischer et al. (Plant Sci, 168:747-759 (2005)). Duplicate plates with RB levels as high as up to 2.0 μM were initially spread with 1×10^3 cells and resulting colonies were counted after a: period of one week. UTEX 2244 was used as a control. Cell viability is reported as a percentage of surviving cells. Additionally, kill curves were conducted in liquid culture using 100-ml stirrer flasks under the same cultivation conditions mentioned previously, with the exception of aeration. Each culture was seeded with an inoculum of exponentially growing cells (1×10^6 cells ml^−1) and the cell density was measured with a Zeiss Axiovert™ 100 inverted light microscope using a hemocytometer over a one-week period. In the experimental flasks, 100x RB dissolved in isopropanol stock solution was added three days after inoculation to cultures of approximately 0.2×10^6 cells ml^−1 in order achieve a final concentration of 2.0 μM; control flasks were unaltered.

[2] = tested on: bleomycin-resistant C. reinhardtii stable transformants; test: Bleocin kill curves on solid medium, mixed population of wild-type and bleomycin-resistant cells; settings: mixed population wild-type:bleomycin-resistant cells 5×10^7:1×10^3, solid medium, two weeks
Description: (§1) Exposure of C. reinhardtii to antibiotic selective pressure was performed as follows. In order to test the efficacy of the antibiotic bleocin (EMD Biosciences) on C. reinhardtii UTEX 2244, algal cells were grown on solid medium containing various concentrations of this selective agent—0, 0.25, 0.5, 1.0, 2.0, 4.0, 6.0, and 8.0 mg L^−1. Duplicate plates were initially spread with either 1×10^3 or 5×10^7 wild-type cells and the cultures' viability was examined over a period of two weeks. Once stable transformants were obtained, this experiment was repeated with a mixed population of wild-type and bleomycin-resistant cells (5×10^7:1×10^3) to verify the emergence of individual colonies from the surrounding lawn of algal cells.

C. reinhardtii UTEX 2244 = test: Minimum inhibitory bleocin concentration on solid medium, wild-type cells
Description: as §1

Compound	effect on cell populations [1]	bleocin concentration in which some stable transformants were able to survive [2]	minimum inhibitory concentration (M.I.C.) to eradicate the entire population (C. reinhardtii UTEX 2244; high density lawn, 5×10^7 cells per plate, two-week incubation)	concentration sufficient to completely inhibit growth (absence of colony formation) (C. reinhardtii UTEX 2244; low density, 1,000 cells per plate, solid medium)	concentration giving widespread cell death (C. reinhardtii UTEX 2244; within only four days of exposure)
O=C([O-])c1c(Cl)c(Cl)c(Cl)c(Cl)c1-c1c2cc(I)c(=O)c(I)c-2oc2c(I)c([O-])c(I)cc12.[Na+].[Na+] [Rose Bengal]	all populations experienced some cell death				
bleocin		≤ 8 mg/L	at least 1 mg L^−1	0.25 mg/L	more than 4 mg L^−1
